In patent publication US10221179B2, “Substituted pyrazoloquinazolinones and pyrroloquinazolinones as allosteric modulators of group II metabotropic glutamate receptors” (DOMAIN THERAPEUTICS, priority 2014, dated 2019) one finds IC50 and melting point data, which are given here for 14 molecules.

One data set addresses T1, human mGluR3 (hmGluR3) (Homo sapiens, UniProt Q14832).
T1 construct: expressed in transfected cells; host or cells: HEK-293 cells, transient co-transfection by electroporation
Put plainly: Ca++ functional assay, human mGluR3 transiently over-expressed in HEK-293 cells (agonist and negative allosteric modulator modes). It counts as cell-based. To be noted: glutamate at EC80, intracellular calcium (Fluo4AM). Here is the method: Example 127: Human mGluR2 and mGluR3 Evaluation Using Ca^++ Functional Assay
Examples of the present invention were tested successively for their agonist and negative allosteric modulator activities on human mGluR2 (hmGluR2) and mGluR3 (hmGluR3) transiently over-expressed in HEK-293 cells. Compounds exert agonist activity if, by themselves in absence of glutamate, they are able to activate hmGluR2 or hmGluR3; and they exert negative allosteric modulator activity if they decrease the action of glutamate (which is employed at its EC80 concentration).
Cell Culture and Transfection […]
Receptor activity is detected by changes in intracellular calcium measured using the fluorescent Ca^2+ sensitive dye, Fluo4AM (Molecular Probes).
On the day of the assay, culture medium is aspirated and replaced during 3 hours by medium without serum supplemented with 1% Glutamax, 1% Penicillin/Streptomycin and 1% non-essential amino acids. […] Addition of compounds and intracellular Ca^2+ measurements (excitation 485 nm, emission 525 nm) are performed by the fluorescence microplate reader FLIPRTetra (Molecular Devices).
Agonist and negative allosteric modulator activities of compounds are consecutively evaluated on the same cell plate. […] Then, cells are stimulated by an EC80 glutamate concentration and fluorescence is recorded for additional 3 minutes. […]
Background: A change in cytosolic calcium serves as a functional read-out for many receptors and channels.

Another data set addresses T2, human mGluR2 (hmGluR2) (Homo sapiens, UniProt Q14416).
T2 construct: expressed in transfected cells; host or cells: HEK-293 cells, transient co-transfection by electroporation
The data set can be described thus: Ca++ functional assay, human mGluR2 transiently over-expressed in HEK-293 cells (agonist and negative allosteric modulator modes). Type of data set: cell-based. To be noted: glutamate at EC80, intracellular calcium (Fluo4AM). The method in brief: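 HEK-293 cells transiently co-transfected with hmGluR2, a chimeric G protein and two glutamate transporters; Fluo4-AM calcium fluorescence (485/525 nm) on FLIPR. Agonist mode judged against buffer, NAM mode against EC80 glutamate, 3 min recording; 20-concentration curves over 6 logs, variable-slope fit for IC50, duplicate, two independent runs.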

The mark [1] stands for this setting: read-out: IC50 for human mGluR2 (negative allosteric modulator activity).
[2] abbreviates: read-out: hmGluR2 negative allosteric modulator activity IC50.

Where two headings read alike, the source gives them in different places. Bounds are passed on as bounds.

T2 sequence (Q14416 19-872): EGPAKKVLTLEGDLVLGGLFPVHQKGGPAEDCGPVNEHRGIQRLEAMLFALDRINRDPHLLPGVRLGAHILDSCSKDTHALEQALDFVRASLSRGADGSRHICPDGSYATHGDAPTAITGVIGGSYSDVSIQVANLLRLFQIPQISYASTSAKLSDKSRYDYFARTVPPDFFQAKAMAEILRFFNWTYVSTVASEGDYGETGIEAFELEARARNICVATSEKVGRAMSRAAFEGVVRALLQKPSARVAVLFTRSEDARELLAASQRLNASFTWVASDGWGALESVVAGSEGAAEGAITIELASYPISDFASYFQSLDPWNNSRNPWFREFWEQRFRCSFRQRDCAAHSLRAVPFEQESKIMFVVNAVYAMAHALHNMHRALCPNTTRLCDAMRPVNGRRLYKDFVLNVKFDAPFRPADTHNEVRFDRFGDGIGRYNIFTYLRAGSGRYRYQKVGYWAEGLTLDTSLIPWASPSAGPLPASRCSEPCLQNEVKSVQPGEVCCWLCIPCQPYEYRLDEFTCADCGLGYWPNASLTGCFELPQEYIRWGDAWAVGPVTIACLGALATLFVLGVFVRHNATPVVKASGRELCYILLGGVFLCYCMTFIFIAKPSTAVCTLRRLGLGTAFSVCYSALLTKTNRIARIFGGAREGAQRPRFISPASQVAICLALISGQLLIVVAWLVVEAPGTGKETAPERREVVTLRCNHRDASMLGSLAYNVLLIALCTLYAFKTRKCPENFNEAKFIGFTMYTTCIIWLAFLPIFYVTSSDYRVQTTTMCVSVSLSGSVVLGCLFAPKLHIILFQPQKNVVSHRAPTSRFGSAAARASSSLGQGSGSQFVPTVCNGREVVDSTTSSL
T1 sequence (Q14832 23-879): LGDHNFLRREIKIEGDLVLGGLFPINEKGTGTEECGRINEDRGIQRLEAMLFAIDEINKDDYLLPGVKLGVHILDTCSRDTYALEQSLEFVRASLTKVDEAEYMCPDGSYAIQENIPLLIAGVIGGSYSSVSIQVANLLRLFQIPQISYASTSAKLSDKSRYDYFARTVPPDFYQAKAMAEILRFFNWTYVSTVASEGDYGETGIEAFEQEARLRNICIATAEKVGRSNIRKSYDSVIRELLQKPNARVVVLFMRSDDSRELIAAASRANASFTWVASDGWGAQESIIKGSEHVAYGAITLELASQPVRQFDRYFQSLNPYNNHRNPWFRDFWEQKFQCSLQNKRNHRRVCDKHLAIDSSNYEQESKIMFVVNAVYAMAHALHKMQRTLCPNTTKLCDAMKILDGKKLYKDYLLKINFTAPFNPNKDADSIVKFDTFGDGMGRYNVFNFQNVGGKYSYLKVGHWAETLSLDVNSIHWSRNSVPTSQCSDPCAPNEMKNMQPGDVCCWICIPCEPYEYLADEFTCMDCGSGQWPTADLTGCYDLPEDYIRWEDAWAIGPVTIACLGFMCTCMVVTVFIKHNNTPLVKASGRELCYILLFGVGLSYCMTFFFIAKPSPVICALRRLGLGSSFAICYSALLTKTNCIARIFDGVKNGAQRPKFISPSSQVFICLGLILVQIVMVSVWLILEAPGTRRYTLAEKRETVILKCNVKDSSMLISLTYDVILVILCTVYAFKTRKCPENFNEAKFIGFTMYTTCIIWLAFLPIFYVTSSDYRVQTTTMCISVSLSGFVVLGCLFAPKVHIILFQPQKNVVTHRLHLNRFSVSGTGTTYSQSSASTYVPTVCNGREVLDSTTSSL

For orientation: IC50 means the midpoint of a concentration-inhibition curve. Regarding `Cn1c(=O)c2ccccc2n2nc(-c3ccnc(Cl)c3)cc12` [Example 1, 2-(2-Chloro-pyridin-4-yl)-4-methyl-4H-pyrazolo[1,5-a]quinazolin-5-one], the results for the IC50 on human mGluR3 (hmGluR3), at human mGluR2 (hmGluR2) (setting [1]) and on human mGluR2 (hmGluR2) (setting [2]) were above 1000 nM, below 100 nM and below 1000 nM, respectively.
With `C=Cc1cc(-c2cc3n(C)c(=O)c4ccccc4n3n2)ccn1` [Example 9, 4-Methyl-2-(2-vinyl-pyridin-4-yl)-4H-pyrazolo[1,5-a]quinazolin-5-one], the IC50 at human mGluR3 (hmGluR3) is above 1000 nM; at human mGluR2 (hmGluR2) (setting [1]) it was below 100 nM; at human mGluR2 (hmGluR2) (setting [2]), below 1000 nM.
What is called melting point is the temperature, or range, at which the solid turns liquid. Molecule `CN(C)c1cc2c(cc1F)c(=O)n(C)c1cc(-c3ccnc(C(F)(F)F)c3)nn21` [Example 91, 8-Dimethylamino-7-fluoro-4-methyl-2-(2-trifluoromethyl-pyridin-4-yl)-4H-pyrazolo[1,5-a]quinazolin-5-one] yielded a melting point above 250 °C. The IC50 on human mGluR2 (hmGluR2) (setting [2]) is below 1000 nM.
For the molecule `COc1ccc2c(c1)c(=O)n(C)c1cc(-c3ccnc(OCC(F)(F)F)c3)nn21` [Example 102, 7-Methoxy-4-methyl-2-[2-(2,2,2-trifluoro-ethoxy)-pyridin-4-yl]-4H-pyrazolo[1,5-a]quinazolin-5-one], the melting point fell in the range of 172 to 180 °C. The IC50 at human mGluR2 (hmGluR2) (setting [2]) is below 1000 nM.
In the same order, the values of `Cn1c(=O)c2ccc(C(=O)N3CC(O)C3)cc2n2nc(-c3ccnc(C(F)(F)F)c3)cc12` [Example 110, 8-(3-Hydroxy-azetidine-1-carbonyl)-4-methyl-2-(2-trifluoromethyl-pyridin-4-yl)-4H-pyrazolo[1,5-a]quinazolin-5-one] are above 250 °C and below 1000 nM.
`Cn1c(=O)c2ccc(N3CCC(O)CC3)cc2n2nc(-c3ccnc(C4CC4)c3)cc12` [Example 113, 2-(2-Cyclopropyl-pyridin-4-yl)-8-(4-hydroxy-piperidin-1-yl)-4-methyl-4H-pyrazolo[1,5-a]quinazolin-5-one] displayed a melting point of 221 to 233 °C. The IC50 on human mGluR2 (hmGluR2) (setting [2]) was below 1000 nM.
Molecule `Cn1c(=O)c2ccc(F)cc2n2nc(-c3ccnc(C(F)F)c3)cc12` [Example 114, 2-(2-Difluoromethyl-pyridin-4-yl)-8-fluoro-4-methyl-4H-pyrazolo[1,5-a]quinazolin-5-one] displayed a melting point of 220 to 226 °C. Also, the IC50 on human mGluR2 (hmGluR2) (setting [2]) was below 1000 nM.
On to `Cn1c(=O)c2ccc(N3CCC(O)CC3)cc2n2nc(-c3ccnc(C(F)F)c3)cc12` [Example 115, 2-(2-Difluoromethyl-pyridin-4-yl)-8-(4-hydroxy-piperidin-1-yl)-4-methyl-4H-pyrazolo[1,5-a]quinazolin-5-one], for which the melting point is above 250 °C. Also, on human mGluR2 (hmGluR2) (setting [2]), the IC50 was below 1000 nM.
For `Cn1c(=O)c2ccc(F)cc2n2nc(-c3ccnc(C4CCC4)c3)cc12` [Example 116, 2-(2-Cyclobutyl-pyridin-4-yl)-8-fluoro-4-methyl-4H-pyrazolo[1,5-a]quinazolin-5-one], the melting point is 210 to 220 °C. In addition, at human mGluR2 (hmGluR2) (setting [2]), the 50% inhibitory concentration (IC50) is below 1000 nM.
In the case of `Cn1c(=O)c2cc(F)c(N3CC(O)C3)cc2n2nc(-c3ccnc(C(F)(F)F)c3)cc12` [Example 119, 7-Fluoro-8-(3-hydroxy-azetidin-1-yl)-4-methyl-2-(2-trifluoromethyl-pyridin-4-yl)-4H-pyrazolo[1,5-a]quinazolin-5-one], the melting point was above 250 °C. The IC50 at human mGluR2 (hmGluR2) (setting [2]) was below 1000 nM.
`Cn1c(=O)c2cc(F)c(OC3COC3)cc2n2nc(-c3ccnc(C(F)(F)F)c3)cc12` [Example 120, 7-Fluoro-4-methyl-8-(oxetan-3-yloxy)-2-(2-trifluoromethyl-pyridin-4-yl)-4H-pyrazolo[1,5-a]quinazolin-5-one] registered a melting point above 250 °C. Further, on human mGluR2 (hmGluR2) (setting [2]), the IC50 is below 1000 nM.
As for `Cn1c(=O)c2cc(F)c(NCCC#N)cc2n2nc(-c3ccnc(C(F)(F)F)c3)cc12` [Example 121, 3-[7-Fluoro-4-methyl-5-oxo-2-(2-trifluoromethyl-pyridin-4-yl)-4,5-dihydro-pyrazolo[1,5-a]quinazolin-8-ylamino]-propionitrile], the melting point is above 250 °C. Also, the IC50 at human mGluR2 (hmGluR2) (setting [2]) was below 1000 nM.
For the molecule `Cn1c(=O)c2cc(F)c(N3CCCC3CO)cc2n2nc(-c3ccnc(C(F)(F)F)c3)cc12` (stereo not drawn) [Example 122, 7-Fluoro-8-(2-hydroxymethyl-pyrrolidin-1-yl)-4-methyl-2-(2-trifluoromethyl-pyridin-4-yl)-4H-pyrazolo[1,5-a]quinazolin-5-one], the melting point is above 250 °C. For the same molecule, the IC50 at human mGluR2 (hmGluR2) (setting [2]) was below 1000 nM.
In the same order, the values of `CC1CN(c2ccc3c(=O)n(C)c4cc(-c5ccnc(C(F)(F)F)c5)nn4c3c2)CC(C)O1` (stereo not drawn) [Example 125, 8-(2,6-Dimethyl-morpholin-4-yl)-4-methyl-2-(2-trifluoromethyl-pyridin-4-yl)-4H-pyrazolo[1,5-a]quinazolin-5-one] are above 250 °C and below 1000 nM.
